This is an account of results in US6706736B2, “Antidepressant azaheterocyclylmethyl derivatives of oxaheterocycle-fused-[1,4]-benzodioxans” (Wyeth, priority 2001, dated 2004).

Counter-ions that a name gives are not always drawn. Like-named read-outs stand apart in the source and are kept apart here.

The target of data set [1] is T1, cloned human 5-HT1A receptors (Homo sapiens, UniProt P08908).
T1 construct: expressed in transfected cells
T1 sequence (P08908 1-422): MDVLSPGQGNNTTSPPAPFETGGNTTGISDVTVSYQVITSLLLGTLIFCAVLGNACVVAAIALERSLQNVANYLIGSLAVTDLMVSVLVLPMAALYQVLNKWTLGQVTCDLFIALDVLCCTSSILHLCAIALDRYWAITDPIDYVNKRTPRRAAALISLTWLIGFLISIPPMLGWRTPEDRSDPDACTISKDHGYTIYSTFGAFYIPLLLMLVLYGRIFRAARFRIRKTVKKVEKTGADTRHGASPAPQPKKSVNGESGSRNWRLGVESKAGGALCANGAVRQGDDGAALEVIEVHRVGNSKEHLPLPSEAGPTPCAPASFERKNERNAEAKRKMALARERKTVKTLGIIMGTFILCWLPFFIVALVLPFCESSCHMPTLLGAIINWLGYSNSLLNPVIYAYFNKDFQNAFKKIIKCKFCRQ
In words: 35S-GTPγS binding assay, antagonist activity at 5-HT1A receptors. The data set is classed as biochemical. The following applies: reversal of standard agonist 8-OHDPAT; for IC50: read-out: 5-HT1A Function IC50; for 5-HT1A Function Imax (maximum inhibitory effect): value in parentheses. On the procedure:
Antagonist activity at 5-HT1A receptors was established by using a ^35S-GTPγS binding assay similar to that used by Lazareno and Birdsall (Br. J. Pharmacol. 109: 1120, 1993), in which the test compound's ability to affect the binding of ^35S-GTPγS to membranes containing cloned human 5-HT1A receptors was determined. Agonists produce an increase in binding whereas antagonists produce no increase but rather reverse the effects of the standard agonist 8-OHDPAT. The test compound's maximum inhibitory effect is represented as the Imax, while its potency is defined by the IC50.

Data set [2] concerns the target T2, human 5-HT1A receptors (Homo sapiens, UniProt P08908).
T2 construct: expressed in transfected cells; host or cells: CHO cells (stably transfected)
T2 sequence (P08908 1-422): T1 sequence (P08908 1-422)
Kind of data set: [3H] 8-OHDPAT displacement from 5-HT1A receptor in transfected CHO cells. It counts as binding. From the text:
High affinity for the serotonin 5-HT1A receptor was established by testing the claimed compound's ability to displace [^3H] 8-OHDPAT (dipropylaminotetralin) from the 5-HT1A serotonin receptor following a modification of the procedure of Hall et al., J. Neurochem. 44, 1685 (1985) which utilizes CHO cells stably transfected with human 5-HT1A receptors.

The target in data set [3] is T3, serotonin transporter (Rattus norvegicus, UniProt P31652).
T3 construct: displace ^3H-paroxetine from male rat frontal cortical membranes; from tissue; host or cells: male rat frontal cortex membranes
Kind of data set: 3H-paroxetine displacement from rat frontal cortical membranes (serotonin transporter affinity). The data set is classed as binding.

Setting [4] is: 3H-paroxetine, male rat frontal cortical membranes, read-out: 5-HT Transporter Affinity KI.

T3 sequence (P31652 whole entry): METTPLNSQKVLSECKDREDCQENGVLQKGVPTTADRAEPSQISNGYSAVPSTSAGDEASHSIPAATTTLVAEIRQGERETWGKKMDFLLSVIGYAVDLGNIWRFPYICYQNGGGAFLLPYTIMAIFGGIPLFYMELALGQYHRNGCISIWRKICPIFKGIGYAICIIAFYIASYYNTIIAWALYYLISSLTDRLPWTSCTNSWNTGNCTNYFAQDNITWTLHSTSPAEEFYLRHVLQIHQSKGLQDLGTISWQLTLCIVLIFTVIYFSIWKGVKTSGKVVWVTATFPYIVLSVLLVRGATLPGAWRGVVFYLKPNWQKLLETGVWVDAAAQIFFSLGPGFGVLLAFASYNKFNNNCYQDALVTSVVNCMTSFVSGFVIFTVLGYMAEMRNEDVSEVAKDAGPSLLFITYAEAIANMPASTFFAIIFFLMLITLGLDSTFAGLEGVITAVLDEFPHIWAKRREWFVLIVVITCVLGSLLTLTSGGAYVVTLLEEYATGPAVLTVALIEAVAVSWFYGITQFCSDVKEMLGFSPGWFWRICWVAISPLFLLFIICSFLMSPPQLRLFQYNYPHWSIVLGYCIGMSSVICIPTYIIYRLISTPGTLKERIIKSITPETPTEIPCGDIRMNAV

A word on the IC50: it is the concentration that gives 50% inhibition. What is called Ki is the equilibrium dissociation constant of an inhibitor or competing ligand from its target. On to `Fc1ccc2[nH]cc(C3=CCN(CC4COc5ccc6c(c5O4)CCCO6)CC3)c2c1` (stereo not shown) [Example 5, 5-Fluoro-3-{1-[2,3,9,10-tetrahydro-8H-[1,4]dioxino[2,3-f]chromen-2-ylmethyl]-1,2,3,6-tetrahydro-4-pyridinyl}-1H-indole], for which, in data set [1], the IC50 stood at 347 nM and the “5-HT1A Function Imax (maximum inhibitory effect)” value is given as 100. This compound gave a Ki in data set [2] of 29.4 nM. The compound further yielded an inhibition constant (Ki) in data set [3] of 10 nM.

For orientation: melting point means the temperature, or range, at which the solid turns liquid. `C1=C(c2c[nH]c3ccccc23)CCN(CC2COc3ccc4occc4c3O2)C1` (stereo not shown) [Example 3, 3-{1-[2,3-Dihydrofuro[3,2-f][1,4]benzodioxin-2-ylmethyl]-1,2,3,6-tetrahydropyridin-4-yl}-1H-indole]: the melting point was 208 to 209 °C. For the same compound, in data set [1], the IC50 was determined as 19 nM and the “5-HT1A Function Imax (maximum inhibitory effect)” value is on record as 61.0. For the same compound, the affinity in data set [2] corresponds to a Ki of 19.6 nM. In data set [3] (setting [4]), the Ki stood at 115 nM.

For `Cc1cc2ccc3c(c2o1)OC(CN1CC=C(c2c[nH]c4ccccc24)CC1)CO3` (stereo not shown) [Example 1], the melting point lay within 198 to 200 °C.

`Fc1ccc2[nH]cc(C3=CCN(CC4COc5ccc6c(c5O4)CCCO6)CC3)c2c1` (stereo not shown) (as salt: salt) [Example 5, 5-Fluoro-3-{1-[2,3,9,10-tetrahydro-8H-[1,4]dioxino[2,3-f]chromen-2-ylmethyl]-1,2,3,6-tetrahydro-4-pyridinyl}-1H-indole] registered a melting point of 205 to 206 °C.

`C1=C(c2c[nH]c3ccccc23)CCN(CC2COc3ccc4c(c3O2)CCCO4)C1` (stereo not shown) [Example 4, 3-{1-[2,3,9,10-Tetrahydro-8H-[1,4]dioxino[2,3-f]chromen-2-ylmethyl]-1,2,3,6-tetrahydro-4-pyridinyl}-1H-indole] came in with a melting point of 186 to 187 °C. Also, in data set [1], the concentration for half-maximal inhibition (IC50) came to 868 nM and the “5-HT1A Function Imax (maximum inhibitory effect)” value worked out at 100. Further, in data set [2], the affinity, expressed as Ki, was 30.4 nM. In data set [3], this compound displayed an inhibitory constant (Ki) of 8.5 nM.

For the compound `C1=C(c2c[nH]c3ccccc23)CCN(CC2COc3ccc4c(c3O2)CCO4)C1` (stereo not shown) [Example 2, 3-{1-[2,3,8,9-Tetrahydrofuro[3,2-f][1,4]benzodioxin-2-ylmethyl]-1,2,3,6-tetrahydro-4-pyridinyl}-1H-indole], the melting point was 207 to 209 °C. For the same compound, in data set [1], the IC50 was found to be 264 nM and the “5-HT1A Function Imax (maximum inhibitory effect)” value is 66.0. Besides, affinity in data set [2] was put at a Ki of 46 nM. Also, affinity in data set [3] was put at a Ki of 34 nM.

`Cc1cc2c3c(ccc2o1)OC[C@H](CN1CC=C(c2c[nH]c4ccccc24)CC1)O3` [Example 1]: in data set [1], the IC50 is 241 nM and the “5-HT1A Function Imax (maximum inhibitory effect)” value turned out to be 62.0. Further, in data set [2], the Ki amounted to 14.1 nM. Besides, the inhibition constant Ki in data set [3] (setting [4]) came to 185 nM.
